In one data set the test system is NHDF cells. The data set is described as follows: Procollagen Type I Peptide (PIP) production, EIA of culture supernatant. The conditions noted are these: 10 µg/mL (positive control), untreated group = 100. It counts as cell-based, Human. On the procedure: Normal Human Dermal Fibroblasts (NHDF) were obtained from Lonza (Lonza Walkersville, Inc.) and cultured in FBM (Fibroblast Basal Medium) supplemented with 0.1% hFGF-B, insulin, GA-1000, and 2% FBS at 37°C in a 5% CO2 incubator. Subculture was performed every 2 to 3 days.
NHDF cells were seeded at 2.0 × 10^4 cells/well in a 24-well plate and incubated for 24 hours at 37°C in a 5% CO2 incubator. After incubation, the culture medium was replaced with serum-free FBM, and the peptide prepared in the above Example was applied at concentrations of 1-100 µM, followed by incubation for 24 hours. The supernatant from each experimental group was collected, and the amount of procollagen released into the medium was measured. The positive control group was treated with ascorbic acid at a concentration of 0.001 v/v%. Measurement of procollagen levels was performed using a Procollagen Type I Peptide (PIP) EIA Kit (Takara Biomedical Co.) according to the manufacturer's protocol. The quantitative results of procollagen type I peptide production following treatment with the peptide of the Example are shown in Table 3 and Fig. 4.

For data set [1], the system named is RAW264.7 cells. The data set is described as follows: Inhibition of nitric oxide (NO) production, Griess reagent, LPS-stimulated macrophages. It counts as cell-based. The following applies: 10 µM (positive control), LPS (1µg/ml), relative to LPS control = 100. On the procedure:
(§1) RAW264.7 macrophage cells were obtained from the American Type Culture Collection (ATCC) and cultured in Dulbecco's Modified Eagle's Medium (DMEM) containing 100 units/mL penicillin-streptomycin and 10% (v/v) fetal bovine serum (FBS) at 37°C in a 5% CO2 incubator, and subculture was performed every 2 to 3 days.
RAW264.7 cells were seeded at 1.5 × 10^5 cells/well in a 24-well plate and incubated for 18 hours at 37°C in a 5% CO2 incubator. The cells were then treated with the peptide prepared in the above Example at concentrations of 50-200 µM and incubated for 24 hours. From each experimental group, 100 µL of the supernatant was collected into a 96-well plate, and 100 µL of griess reagent was added. The mixture was allowed to react at room temperature for 10 minutes, and absorbance was measured at 540 nm using a microplate reader. […] The relative levels of NO production following the treatments described in the above Example, based on NO production induced by the stimulant (LPS), are shown in Table 1 and Figure 2 below.
A general note: The Griess reaction detects nitrite, a stable product of nitric oxide.

Data set [2] concerns RAW264.7 cells. The data set is described as follows: EZ-cytox cell viability assay in macrophages. The data set is classed as cell-based. The following applies: 10 µM (positive control), LPS (1µg/ml). On the procedure: as §1
(§2) The EZ-cytox assay is a representative method for measuring cell viability using the principle that water-soluble tetrazolium salts (WSTs) react with dehydrogenases of viable cells to produce a water-soluble orange formazan.
(§3) To evaluate cytotoxicity, RAW264.7 cells were seeded at 1.5 × 10^4 cells/well in a 96-well plate using DMEM supplemented with 10% FBS and incubated for 18 hours at 37°C in a 5% CO2 incubator. The test samples were then applied to the cultured cells. After treatment, EZ-cytox was added to each well and incubated for 30 minutes under the same conditions. Absorbance was measured at 450 nm using a microplate reader. The mean absorbance values of each sample group were compared with the control group to determine cell viability.

Data set [3] can be described thus: EZ-cytox cell viability assay in macrophages. It counts as cell-based. The following applies: mouse, RAW264.7 macrophage cells, LPS (1µg/ml). As to the method:
as §1, §2, §3

The test system of a further data set is HaCaT cells. The data set is described as follows: Hyaluronic acid (HA) production, ELISA of culture supernatant. The data set is classed as cell-based, human. The conditions noted are these: 10 mM (positive control), untreated group = 100. On the procedure:
The HaCaT human keratinocyte cell line was obtained from Cell Line Service GmbH (Germany). The cells were cultured in DMEM containing 1% penicillin-streptomycin and 10% fetal bovine serum (FBS) at 37°C in a 5% CO2 incubator, and subculture was performed every 2 to 3 days.
HaCaT cells were seeded at 1.0 × 10^5 cells/well in a 24-well plate and incubated for 24 hours at 37°C in a 5% CO2 incubator. After incubation, the culture medium was replaced with serum-free DMEM, and the peptide prepared in the above Example was applied at concentrations of 50-200 µM, followed by incubation for 24 hours. The supernatant from each experimental group was collected, and the amount of hyaluronic acid (HA) released into the medium was measured. The positive control group was treated with N-acetylglucosamine at a concentration of 10 mM. Measurement of hyaluronic acid production was conducted using a Hyaluronic Acid ELISA Kit (Cusabio Biotechnology Co., Ltd.) following the manufacturer's protocol.
(In general: In an ELISA, binding on a coated surface is turned into a signal by an enzyme label.)

Where a SMILES comes first, the peptide text is derived from it.

Regarding `O=C1O[C@H]([C@@H](O)CO)C(O)=C1O` [Asc.A, ascorbic acid], the “Procollagen production (%)” value in the data set on NHDF cells was determined as 175.82±3.91%. For the compound `Cc1ccnc(N)c1` [Example 2-AM, 2-amino-4-methylpyridine], in the data set with RAW264.7 cells [1], the “NO Production (%)” value stood at 10.23±0.55%. The “Cell viability (%)” value in the data set on RAW264.7 cells [2] turned out to be 94.12±1.76%. By viability is commonly meant a per cent measure of how many cells are alive, often set against a control. The low end stands for a greater loss of cells, the high end for better survival. In turn, `N[C@@H](Cc1ccc(O)cc1)C(=O)NCC(=O)N[C@@H](CO)C(=O)N[C@@H](CC(=O)O)C(=O)O` [Example, YGSD (Tyr-Gly-Ser-Asp)] (H-YGSD-OH) showed a viability at 50 µM in data set [3] (50 µM) of 98.1 ± 1.81%. Moreover, the viability at 100 µM in data set [3] (100 µM) is 99.4 ± 2.02%. This compound had a viability at 200 µM in data set [3] (200 µM) of 99.53 ± 0.95%. Take `CC(=O)N[C@H]1C(O)O[C@H](CO)[C@@H](O)[C@@H]1O` (stereo partly shown) [NAG, N-acetylglucosamine]: in the data set on HaCaT cells, the “Hyaluronic acid production (%)” value was 121.43±10.37%.

The values are drawn from EP4671261A1, “NOVEL PEPTIDE EXHIBITING SKIN CONDITION IMPROVEMENT ACTIVITY AND COSMETIC COMPOSITION CONTAINING SAME” (Daebong LS Co., Ltd., priority 2023, dated 2024).
